Assay results from article PMC11434752, “Algerian Prickly Pear Seed By-Products: Fatty Acids Composition, Antioxidant, Enzyme Inhibitory Activities towards Tyrosinase, Urease, α-Amylase, and Cholinesterase, along with the Ability to Protect from Thermal Protein Denaturation” (Pharmaceuticals, 2024).

Biological target: urease (Canavalia ensiformis, UniProt P07374)
Assay: biochemical

Chain of urease (P07374 whole entry): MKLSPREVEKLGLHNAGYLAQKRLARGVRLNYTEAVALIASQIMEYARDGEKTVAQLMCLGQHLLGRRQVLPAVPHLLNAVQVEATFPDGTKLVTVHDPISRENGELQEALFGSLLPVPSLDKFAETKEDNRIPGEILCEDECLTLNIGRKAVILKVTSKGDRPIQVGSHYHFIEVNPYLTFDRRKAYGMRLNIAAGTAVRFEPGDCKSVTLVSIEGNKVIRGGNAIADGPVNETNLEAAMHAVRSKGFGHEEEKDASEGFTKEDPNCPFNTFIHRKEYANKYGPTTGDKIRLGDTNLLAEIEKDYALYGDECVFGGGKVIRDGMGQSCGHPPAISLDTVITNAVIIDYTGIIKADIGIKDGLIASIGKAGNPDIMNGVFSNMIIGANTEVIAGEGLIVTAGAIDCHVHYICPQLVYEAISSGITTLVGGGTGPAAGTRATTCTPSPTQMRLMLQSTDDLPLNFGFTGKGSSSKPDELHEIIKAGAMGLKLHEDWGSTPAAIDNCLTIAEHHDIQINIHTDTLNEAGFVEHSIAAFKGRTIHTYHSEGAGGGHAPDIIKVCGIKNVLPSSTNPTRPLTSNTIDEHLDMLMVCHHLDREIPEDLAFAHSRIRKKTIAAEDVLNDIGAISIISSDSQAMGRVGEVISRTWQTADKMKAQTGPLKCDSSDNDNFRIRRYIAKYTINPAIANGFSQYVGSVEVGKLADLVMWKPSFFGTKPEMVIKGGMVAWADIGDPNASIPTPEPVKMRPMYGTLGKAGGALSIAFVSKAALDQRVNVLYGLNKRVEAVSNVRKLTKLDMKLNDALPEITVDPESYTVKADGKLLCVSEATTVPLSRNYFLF

**Q.** For `NC(N)=S` [Thiourea], which IC50 is on record?
**A.** 111 µM
